Results published in patent US20260248788A1, “NEW COMPOUNDS AND TREATMENT OF RENAL CELL CARCINOMA” (TRUSTLIFE THERAPEUTICS INC., priority 2023, published 2026).
“Also recorded” adds a separate entry of the source.

Legend:
Type in all cases: cell-based, human
BUB1B = experiment: Western blot of BUB1B in Caki-1 cells treated with TG-101209 derivatives; details: for expression levels of BUB1B (Western blot): Caki-1 cells, 5 μM of target drug, 1 day (FIG. 41, 56); for expression levels of BUB1B (summary statement): concentration not given
Protocol: (§1) Cell culture 2: Caki-1 was purchased from CLS Cell Lines Service (Germany). The cells were maintained in McCoy's 5A (modified) medium (16600082, Thermo Fisher Scientific, USA) and supplemented with 10% fetal bovine serum (FBS, F7524, Sigma-Aldrich), 1% Penicillin/Streptomycin (P4333, Sigma-Aldrich).
The target drugs developed as alternatives to TG-101209, were dissolved in 0.1% DMSO (41639, Sigma-Aldrich). Caki-1 cells from cell culture 2 were seeded in a 6-well plate at 3×10^5 cells per well. […]
The cells were washed with PBS solution and then lysed with CelLytic M (C2978, Sigma-Aldrich) lysis buffer containing protease inhibitors (11836170001, Roche). The cell lysates were centrifuged at 12 000 rpm for 10 min and supernatants were collected. Protein Assay Dye Reagent (5000006, Bio-Rad) was used for the determination of protein concentration. The absorbance of the proteins was measured spectrophotometrically at 595 nm by a microplate reader (Hidex Sense Beta Plus). Protein electrophoresis was performed using Mini-PROTEAN® TGX™ Precast Gels (4561086, Bio-Rad) and then the separated proteins were transferred to a Trans-Blot Turbo Mini 0.2 μm PVDF Transfer Packs membrane (1704158, Bio-Rad) by using Trans-Blot® Turbo™ Transfer System (Bio-Rad). The membrane was blocked with 5% skim milk for 30 min at 4° C. with gentle rocking. After blocking, the membrane was treated with primary antibodies: Anti-BUB1B (HPA008419, Human Protein Atlas, Sweden) and Anti-Beta actin (ab8227, Abcam) as a loading control overnight at 4° C. on a rocking platform. After the treatment of primary antibodies, the membrane was washed three times with TBS-T buffer (A09-7500-100, Medicago). Then, Goat anti-Rabbit IgG-HRP (ab205718, Abcam) was treated as the secondary antibody for 30 min at 4° C. with gentle rocking.

Caki-1 cells [1] = experiment: MTT cell viability assay; details: for reduction in cell viability (MTT) / effect on cell viability (MTT): 1 day; for cell viability of treated cells (summary statement): concentration not given
Protocol: as §1
The cytotoxic effects of the TG-101209 and its alternatives on the Caki-1 cells were tested by MTT (Thiazolyl Blue Tetrazolium Bromide) method. 1.5×10^4 cells were seeded per well in a 96-well plate in 100 μL growth media. […] After the incubation period, 5 mg/ml MTT (M2128, Sigma-Aldrich) solution in PBS (10 μL) was added to each well. After 1 hour, the MTT solution and all media were removed from the wells. 100 μl of DMSO was added and mixed to dissolve the formazan crystals. Cell viability was analysed by measuring the absorbance of the dissolved formazan at a wavelength of 570 nm with a microplate reader (Hidex Sense Beta Plus).

Caki-1 cells [2] = experiment: LDH cytotoxicity assay; details: for cytotoxicity (LDH assay): Caki-1, 10 μM, first batch; for cytotoxicity (LDH assay) / Ranking, Cytotoxicity (%): 1 day; for Ranking, Cytotoxicity (%): top five, LDH assay, 10 μM, rank 1 = highest
Protocol: as §1
Lactate dehydrogenase (LDH) assay was performed with LDH Assay Kit (ab65393). […] 20 μl of media was analysed with LDH Assay Kit as per manufacturer's instruction.

Caki-1 cells [3] = experiment: Cell morphology (DIC images) of treated Caki-1 cells; details: Caki-1, 10 μM, 1 day
Description: The effect of treatment of Caki-1 cells with the target compounds was further evaluated by monitoring the cell morphology of treated cells, see FIG. 52.

| SMILES | expression levels of BUB1B (Western blot) (BUB1B) | expression levels of BUB1B (summary statement) (BUB1B) | cell viability of treated cells (summary statement) (Caki-1 cells [1]) | also measured |
| --- | --- | --- | --- | --- |
| Cc1cnc(Nc2ccc(N3CCN(C)CC3)cc2)nc1Nc1cccc(S(=O)(=O)Nc2ccccc2)c1 [Compound M3, 3-((5-methyl-2-((4-(4-methylpiperazin-1-yl)phenyl)amino)pyrimidin-4-yl)amino)-N-phenylbenzenesulfonamide] | significantly lower the expression levels of BUB1B | – | – | – |
| Cc1cnc(Nc2ccc(N3CCN(C)CC3)cc2)nc1Nc1cccc(S(=O)(=O)NC2CCC2)c1 [Compound M5, N-cyclobutyl-3-((5-methyl-2-((4-(4-methylpiperazin-1-yl)phenyl)amino)pyrimidin-4-yl)amino)benzenesulfonamide] | significantly lower the expression levels of BUB1B | reduction of the expression levels of BUB1B | especially low cell viability; also recorded: particularly low cell viability | change of IC50 values after 2 days compared to 1 day treatment (Caki-1 cells [1]; Caki-1 (FIG. 53-54)): largest decrease; reduction in cell viability (MTT) (Caki-1 cells [1]; Caki-1, 5 μM, first batch): the greatest; effect on cell viability (MTT) (Caki-1 cells [1]; Caki-1, 10 μM, first batch): greatest reduction of cell viability; cell viability over the treatment period (MTT) (Caki-1 cells [1]; Caki-1, 10 μM, 27 h, 48 h and 72 h (FIG. 55)): larger decrease in cell viability than TG-101209; IC50 values compared with TG-101209 (Caki-1 cells [1]; Caki-1, 1 and 2 days (FIG. 53-54)): better IC50 values than TG-101209; cytotoxic effect and dose dependence (Caki-1 cells [2]; Caki-1, 10 nM-30 μM): dose dependent toxicity; cytotoxicity (LDH assay) (Caki-1 cells [2]): highest cytotoxicity; Ranking, Cytotoxicity (%) (Caki-1 cells [2]): 2; mechanism according to morphology evaluation (Caki-1 cells [3]): cell growth inhibition mechanism; effect on the cell morphology (Caki-1 cells [3]; DIC images (FIG. 52)): distinct effect on the cell morphology |
| Cc1cnc(Nc2ccc(N3CCN(C)CC3)cc2)nc1Nc1cccc(S(=O)(=O)N2CCOCC2)c1 [Compound M7, 5-methyl-N2-(4-(4-methylpiperazin-1-yl)phenyl)-N4-(3-(morpholinosulfonyl)phenyl)pyrimidine-2,4-diamine] | significantly lower the expression levels of BUB1B | reduction of the expression levels of BUB1B | especially low cell viability; also recorded: reduced cell viability | – |
| Cc1cn(-c2cc(Nc3ncc(C)c(Nc4cccc(S(=O)(=O)NC(C)(C)C)c4)n3)cc(C(F)(F)F)c2)cn1 [Compound M64, N-(tert-butyl)-3-((5-methyl-2-((3-(4-methyl-1H-imidazol-1-yl)-5-(trifluoromethyl)phenyl)amino)pyrimidin-4-yl)amino)benzenesulfonamide] | significantly lower the expression levels of BUB1B | – | – | – |
| Cc1ccc(Nc2ncc(C)c(Nc3cccc(S(=O)(=O)NC(C)(C)C)c3)n2)cc1S(N)(=O)=O [Compound M66, N-(tert-butyl)-3-((5-methyl-2-((4-methyl-3-sulfamoylphenyl)amino)pyrimidin-4-yl)amino)benzenesulfonamide] | significantly lower the expression levels of BUB1B | reduction of the expression levels of BUB1B | particularly low cell viability; also recorded: significantly reduced cell viability | reduction in cell viability (MTT) (Caki-1 cells [1]; Caki-1, 5 μM, first batch): the greatest; effect on cell viability (MTT) (Caki-1 cells [1]; Caki-1, 10 μM, first batch): most profound effect; cytotoxicity (LDH assay) (Caki-1 cells [2]): exhibited cytotoxicity; Ranking, Cytotoxicity (%) (Caki-1 cells [2]): 4 |
| COc1cc(Nc2ncc(C)c(Nc3cccc(S(=O)(=O)NC(C)(C)C)c3)n2)cc(OC)c1 [Compound M79, N-(tert-butyl)-3-((2-((3,5-dimethoxyphenyl)amino)-5-methylpyrimidin-4-yl)amino)benzenesulfonamide] | significantly lower the expression levels of BUB1B | reduction of the expression levels of BUB1B | especially low cell viability; also recorded: significantly reduced cell viability | – |
| Cc1ccc(Nc2ncc(C)c(Nc3cccc(S(=O)(=O)NC(C)(C)C)c3)n2)cc1Nc1nc(-c2cccnc2)cs1 [Compound M88, N-(tert-butyl)-3-((5-methyl-2-((4-methyl-3-((4-(pyridin-3-yl)thiazol-2-yl)amino)phenyl)amino)pyrimidin-4-yl)amino)benzenesulfonamide] | significantly lower the expression levels of BUB1B | reduction of the expression levels of BUB1B | especially low cell viability; also recorded: significantly reduced cell viability | IC50 (Caki-1 cells [1]; Homo sapiens, 24 h, Caki-1, 1 day (FIG. 43), text: after treatment with 5 μM): > 3000 nM |
| Cc1cnc(Nc2ccc(C(=O)Nc3cccc(S(=O)(=O)N4CCOCC4)c3)cc2)nc1Nc1cccc(S(=O)(=O)NC(C)(C)C)c1 [Compound M101F, 4-((4-((3-(N-(tert-butyl)sulfamoyl)phenyl)amino)-5-methylpyrimidin-2-yl)amino)-N-(3-(morpholinosulfonyl)phenyl)benzamide] | – | – | particularly low cell viability; also recorded: significantly reduced cell viability | reduction in cell viability (MTT) (Caki-1 cells [1]; Caki-1, 5 μM, first batch): the greatest; cytotoxicity (LDH assay) (Caki-1 cells [2]): exhibited cytotoxicity |
| COc1cc(Nc2ncc(C)c(Nc3cccc(S(=O)(=O)N4CCOCC4)c3)n2)cc(OC)c1OC [Compound M115, 5-methyl-N4-(3-(morpholinosulfonyl)phenyl)-N2-(3,4,5-trimethoxyphenyl)pyrimidine-2,4-diamine] | – | reduction of the expression levels of BUB1B | especially low cell viability; also recorded: reduced cell viability | – |
| COc1cc(Nc2ncc(C)c(Nc3ccc(N4CCN(C)CC4)cc3)n2)cc(OC)c1OC [Compound M119, 5-methyl-N4-(4-(4-methylpiperazin-1-yl)phenyl)-N2-(3,4,5-trimethoxyphenyl)pyrimidine-2,4-diamine] | – | reduction of the expression levels of BUB1B | especially low cell viability; also recorded: significantly reduced cell viability | – |
| COc1cc(Nc2ncc(C)c(Nc3cccc(S(=O)(=O)NC4CCC4)c3)n2)cc(OC)c1OC [Compound M120, N-cyclobutyl-3-((5-methyl-2-((3,4,5-trimethoxyphenyl)amino)pyrimidin-4-yl)amino)benzenesulfonamide] | – | reduction of the expression levels of BUB1B | especially low cell viability; also recorded: particularly low cell viability; also recorded: significantly reduced cell viability | reduction in cell viability (MTT) (Caki-1 cells [1]; Caki-1, 10 μM, second batch): the greatest |
| Cc1ccc(Nc2ncc(C)c(Nc3ccc(N4CCN(C)CC4)cc3)n2)cc1S(N)(=O)=O [Compound M123, 2-methyl-5-((5-methyl-4-((4-(4-methylpiperazin-1-yl)phenyl)amino)pyrimidin-2-yl)amino)benzenesulfonamide] | – | reduction of the expression levels of BUB1B | particularly low cell viability; also recorded: significantly reduced cell viability | – |
